Patent US11369565B2, “Amino-pyrimidine skeletal muscle modulators” (Cytokinetics, Inc., priority 2010, dated 2022)

The compounds below were run on rabbit skeletal myofibrils (approximately 90% fast fibers) (assay: Activation of fast skeletal myofibrils (PUMA coupled-enzyme ATPase assay at pCa25)). Conditions: concentration at which the compound increased the enzymatic activity by 40%; calcium at pCa25; PM12 buffer pH 6.8.
Assay type: biochemical
Method in brief: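 In pH 6.8 PM12 buffer (12 mM Pipes, 2 mM MgCl2, 1 mM DTT), ADP from myosin regenerated via pyruvate kinase/lactate dehydrogenase, with absorbance change at 340 nm from NADH oxidation as read-out. Calcium set at pCa25; Triton-washed rabbit skeletal myofibrils (about 90% fast fibres) used.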

| Structure (SMILES) | Mean AC1.4 |
| --- | --- |
| Oc1ncc(-c2cnc(N3CC4(c5ncccc5F)CC3C4)nc2)cn1 [5-{2-[4-(3-fluoro-2-pyridyl)-2-azabicyclo[2.1.1]hex-2-yl]pyrimidin-5-yl}pyrimidin-2-ol] | D (D=>20 uM) |
| CC(=O)N1CCc2nc(NCC(C)(C)c3ccc(F)cc3)ncc2C1 [6-acetyl-2-{[2-(4-fluorophenyl)-2-methylpropyl]amino}-5,6,7,8-tetrahydropyridino[4,3-d]pyrimidine] | D (D=>20 uM) |
| N#Cc1n[nH]c2cc(F)c(-c3cnc(NC4(c5ncccc5F)CCC4)nc3)cc12 [6-fluoro-5-(2-{[(3-fluoro(2-pyridyl))cyclobutyl]amino}pyrimidin-5-yl)-1H-indazole-3-carbonitrile] | B (B=1-10 uM) |
| O=C1Cc2cccc(-c3cnc(NC[C@]4(c5ncccc5F)C[C@H](F)C4)nc3)c2N1 [7-[2-({[3-fluoro-1-(3-fluoro(2-pyridyl))cyclobutyl)]methyl}amino) pyrimidin-5-yl]indolin-2-one] | B (B=1-10 uM) |
| O=C1NCc2cccc(-c3cnc(NC[C@]4(c5ncccc5F)C[C@H](F)C4)nc3)c21 [7-[2-({[3-fluoro-1-(3-fluoro(2-pyridyl))cyclobutyl]methyl}amino)pyrimidin-5-yl]isoindolin-1-one] | B (B=1-10 uM) |
| Nc1nc(NC[C@]2(c3ncccc3F)C[C@H](F)C2)ncc1-c1ccccc1 [(4-amino-5-phenylpyrimidin-2-yl){[3-fluoro-1-(3-fluoro(2-pyridyl))cyclobutyl)]methyl} amine] | B (B=1-10 uM) |
| CC(C)(Nc1ncc(Br)cn1)c1ccc(F)cc1 [(5-bromopyrimidin-2-yl)[1-(4-fluorophenyl)-isopropyl]amine] | C (C=10-20 uM) |
| Fc1cccnc1C1(Nc2ncc(Br)cn2)CCC1 [(5-bromopyrimidin-2-yl)[(3-fluoro(2-pyridyl))cyclobutyl]amine] | D (D=>20 uM) |
| Fc1ccc(C2(Nc3ncc(Br)cn3)CCC2)cc1 [(5-bromopyrimidin-2-yl)[(4-fluorophenyl)cyclobutyl]amine] | D (D=>20 uM) |
| Fc1cccnc1C1(Nc2ncc3cc(Br)ccc3n2)CCC1 [(6-bromoquinazolin-2-yl)[(3-fluoro(2-pyridyl))cyclobutyl]amine] | D (D=>20 uM) |
| Cc1cc(NC2CCCCC2)nc(N[C@H](C)c2ccccc2)n1 [((1R)-1-phenylethyl)[4-(cyclohexylamino)-6-methylpyrimidin-2-yl]amine] | B (B=1-10 uM) |
| CC(C)(C)OC(=O)NCc1cnc(-c2cnc(NCC3(c4ncccc4Cl)CCC3)nc2)s1 [(tert-butoxy)-N-({2-[2-({[(3-chloro(2-pyridyl))cyclobutyl]methyl}amino)pyrimidin-5-yl](1,3-thiazol-5-yl)}methyl)carboxamide] | A (A=<1 uM) |

Further lines, results first:

| Mean AC1.4 | Structure (SMILES) |
| --- | --- |
| D (D=>20 uM) | CC(C)(Nc1ncc(-c2cnc3c(c2)NC(=O)C3)cn1)c1ncccc1Cl [6-(2-{[1-(3-chloro(2-pyridyl))-isopropyl]amino}pyrimidin-5-yl)-2-pyrrolino[3,2-b]pyridin-2-one] |
| C (C=10-20 uM) | CC(C)(Nc1ncc(-c2cccc(C(N)=O)n2)cn1)c1ncccc1Cl [6-(2-{[1-(3-chloro(2-pyridyl))-isopropyl]amino}pyrimidin-5-yl)pyridine-2-carboxamide] |
| B (B=1-10 uM) | CC(C)(Nc1ncc(-c2cc(C(N)=O)ncn2)cn1)c1ncccc1Cl [6-(2-{[1-(3-chloro(2-pyridyl))-isopropyl]amino}pyrimidin-5-yl)pyrimidine-4-carboxamide] |
| D (D=>20 uM) | CC(C)(Nc1ncc(-c2cn3cc(C(N)=O)sc3n2)cn1)c1ncccc1Cl [6-(2-{[1-(3-chloro(2-pyridyl))-isopropyl}amino}pyrimidin-5-yl) imidazo[2,1-b]1,3-thiazoline-2-carboxamide] |
| B (B=1-10 uM) | O=c1cc(-c2cnc(NC[C@]3(c4ncccc4F)C[C@H](F)C3)nc2)[nH]c(=O)[nH]1 [6-[2-({[3-fluoro-1-(3-fluoro(2-pyridyl))cyclobutyl]methyl}amino)pyrimidin-5-yl]-1,3-dihydropyrimidine-2,4-dione] |
| D (D=>20 uM) | Oc1ccc(-c2cnc(NC[C@]3(c4ncccc4F)C[C@H](F)C3)nc2)nn1 [6-[2-({[3-fluoro-1-(3-fluoro(2-pyridyl))cyclobutyl]methyl}amino)pyrimidin-5-yl]pyridazin-3-ol] |
| B (B=1-10 uM) | Oc1ccc(-c2cnc(NC[C@]3(c4ncccc4F)C[C@H](F)C3)nc2)nc1 [6-[2-({[3-fluoro-1-(3-fluoro(2-pyridyl))cyclobutyl]methyl}amino)pyrimidin-5-yl]pyridin-3-ol] |
| A (A=<1 uM) | NC(=O)c1n[nH]c2cc(F)c(-c3cnc(NC4(c5ncccc5F)CCC4)nc3)cc12 [6-fluoro-5-(2-{[(3-fluoro(2-pyridyl))cyclobutyl]amino}pyrimidin-5-yl)-1H-indazole-3-carboxamide] |
| A (A=<1 uM) | CC(C)(Nc1ncc(-c2ccc3[nH]ncc3c2)cn1)c1ncccc1Cl [(5-(1H-indazol-5-yl)]pyrimidin-2-yl)[1-(3-chloro(2-pyridyl))-isopropyl]amine] |
| B (B=1-10 uM) | Fc1cccnc1C1(Nc2ncc(-c3ccc4[nH]ncc4c3)cn2)CCC1 [(5-(1H-indazol-5-yl)pyrimidin-2-yl)[(3-fluoro(2-pyridyl))cyclobutyl]amine] |
| D (D=>20 uM) | CC(C)(Nc1ncc(C2N=NN=N2)cn1)c1ncccc1Cl [(5-(5H-1,2,3,4-tetraazol-5-yl)pyrimidin-2-yl)[1-(3-chloro(2-pyridyl))-isopropyl]amine] |
| D (D=>20 uM) | CC(C)(Nc1ncc(Br)cn1)c1ncccc1F [(5-bromopyrimidin-2-yl)[1-(3-fluoro(2-pyridyl))-isopropyl]amine] |
| D (D=>20 uM) | CC(C)(Nc1ncc(-c2ncc(CNC(=O)[C@H]3CCCN3)s2)cn1)c1ncccc1F [((2R)pyrrolidin1-2-yl)-N-{[2-(2-{[1-(3-fluoro(2-pyridyl))-isopropyl]amino}pyrimidin-5-yl)(1,3-thiazol-5-yl)]methyl}carboxamide] |
| D (D=>20 uM) | CC(C)(Nc1ncc(-c2nc(CNC(=O)[C@H]3CCCN3)cs2)cn1)c1ncccc1F [((2R)pyrrolidin-2-yl)-N-{[2-(2-{[1-(3-fluoro(2-pyridyl))-isopropyl]amino}pyrimidin-5-yl)(1,3-thiazo-4-yl)]methyl}carboxamide] |
| D (D=>20 uM) | CC(C)(Nc1ncc(-c2nc(CNC(=O)[C@@H]3CCCN3)cs2)cn1)c1ncccc1F [((2S)pyrrolidin-2-yl)-N-{[2-(2-{[1-(3-fluoro(2-pyridyl))-isopropyl]amino}pyrimidin-5-yl)(1,3-thiazol-4-yl)]methyl}carboxamide] |
| C (C=10-20 uM) | CC(C)(Nc1ncc(-c2ncc(CNC(=O)[C@@H]3CCCN3)s2)cn1)c1ncccc1F [((2S)pyrrolidin-2-yl)-N-{[2-(2-{[1-(3-fluoro(2-pyridyl))-isopropyl]amino}pyrimidin-5-yl)(1,3-thiazol-5-yl)]methyl}carboxamide] |
| D (D=>20 uM) | CC(C)(Nc1ncc(-c2ncc(CNC(=O)C3(N)CC3)s2)cn1)c1ncccc1F [(aminocyclopropyl)-N-{[2-(2-{[1-(3-fluoro(2-pyridyl))-isopropyl]amino}pyrimidin-5-yl)(1,3-thiazol-5-yl)]methyl)carboxamide] |
